Measurements reported in publication PMC8943889, “Synthetic studies with the brevicidine and laterocidine lipopeptide antibiotics including analogues with enhanced properties and in vivo efficacy” (Chemical Science, 2022).
Converted amounts (≈) assume the structure as drawn. Read-outs that look alike come from different tables or passages of the source. Positions of bridges follow the written chain, without caps; N, C: chain ends. Non-standard residues stand in square brackets, D forms with d. Residues, ends and D or L forms follow the SMILES beside them. ξ: configuration not given here. *: point of attachment. Hexanoyl(4ξ-Me) = CCC(C)CCC(=O)*; dOrn = NCCC[C@@H](N)C(=O)O; Orn = NCCC[C@H](N)C(=O)O; Dap = NC[C@H](N)C(=O)O

Tests used:
Type in all cases: cell-based
A. baumannii 2018-006 = system: A. baumannii 2018-006
Experimental: (§1) Minimum inhibitory concentrations (MICs) were determined by broth microdilution according to CLSI guidelines in triplicate. Blood agar plates were inoculated with glycerol stocks of E. coli ATCC 25922, E. coli MCR-1 (clinical isolate from Utrecht Medical Centre, NL), E. coli EQAS MCR-2 (clinical isolate from Wageningen University and Research, NL), K. pneumoniae ATCC 11228, K. pneumoniae ATCC 13883, K. pneumonia 2048 (clnical isolate from Vrije Universiteit Amsterdam Medical Centre, NL), K. pneumonia JS-123 (clinical isolate from Utrecht Medical […]
(§2) (clinical isolate from Rijksinstituut voor Volksgezondheid en Milieu, NL), A. baumannii MDR (clinical isolate from Vrije Universiteit Amsterdam Medical Centre, NL), P. aeruginosa ATCC 27853, P. aeruginosa PAO1, P. aeruginosa NRZ-03961 (Reference strain from Das Nationale Referenzzentrum für gramnegative Krankenhauserreger, DE), P. aeruginosa M-120 (clinical isolate from Leiden University Medical Centre, NL) and S. aureus USA300 (clinical isolate from Texas Children's Hospital, USA). E. coli 25922 MCR1 was grown on LB agar supplemented with kanamycin. The inoculated agar plates were then incubated for 16 h at 37°C . Individually grown colonies were subsequently used to inoculate 3 mL aliquots of TSB that were then incubated at 37°C with shaking at 220 rpm. In parallel, the lipopeptide antibiotics to be assessed were serially diluted with Mueller-Hinton broth (MHB) in polypropylene 96-well plates (50 µL in each well).
(§3) Once the OD600 of the bacterial suspensions reached 0.5, the bacteria were diluted with MHB (final concentration 2 × 10^5 CFU mL−1) and added to the microplates containing the test compounds (50 µL to each well, final volume: 100 µL). The well-plates were sealed with an adhesive membrane and after 16 h of incubation at 37°C with shaking at 220 rpm the wells were visually inspected for bacterial growth. MIC values reported are based on three technical replicates and defined as the lowest concentration of the compound that prevented visible growth of bacteria. […]

A. baumannii ATCC 17961 = system: A. baumannii ATCC 17961
Experimental: as §1, §2, §3

A. baumannii ATCC 17978 = system: A. baumannii ATCC 17978
Experimental: as §1, §2, §3

A. baumannii MDR = conditions: Ab MDR; broth microdilution (CLSI), MHB, 16 h 37 °C, three technical replicates
Experimental: as §1, §2, §3

E. coli ATCC 25922 MCR-1 = conditions: Ec ATCC 25922 MCR-1; broth microdilution (CLSI), MHB, 16 h 37 °C, three technical replicates
Experimental: as §1, §2, §3

E. coli ATCC 25922 = system: E. coli ATCC 25922
Experimental: as §1, §2, §3

E. coli EQAS MCR-2 = conditions: Ec EQAS MCR-2; broth microdilution (CLSI), MHB, 16 h 37 °C, three technical replicates
Experimental: as §1, §2, §3

K. pneumoniae 2048 = system: K. pneumoniae 2048
Experimental: as §1, §2, §3

K. pneumoniae ATCC 11228 = system: K. pneumoniae ATCC 11228
Experimental: as §1, §2, §3

K. pneumoniae ATCC 13883 = system: K. pneumoniae ATCC 13883
Experimental: as §1, §2, §3

K. pneumoniae JS-123 = system: K. pneumoniae JS-123
Experimental: as §1, §2, §3

P. aeruginosa ATCC 27853 = system: P. aeruginosa ATCC 27853
Experimental: as §1, §2, §3

P. aeruginosa M-120 = system: P. aeruginosa M-120
Experimental: as §1, §2, §3

P. aeruginosa NRZ-03961 = system: P. aeruginosa NRZ-03961
Experimental: as §1, §2, §3

P. aeruginosa PAO1 = system: P. aeruginosa PAO1
Experimental: as §1, §2, §3

S. aureus USA300 = system: S. aureus USA300
Experimental: as §1, §2, §3

[1] = system: E. coli MCR-1 (clinical isolate); conditions: Ec MCR-1; broth microdilution (CLSI), MHB, 16 h 37 °C, three technical replicates
Experimental: as §1, §2, §3

Structure (SMILES) | MIC (A. baumannii 2018-006; 2018-006, 16 h) [µg/mL] | MIC (A. baumannii ATCC 17961; ATCC 17961, 16 h) [µg/mL] | MIC (A. baumannii ATCC 17978; ATCC 17978, 16 h) [µg/mL] | MIC (A. baumannii MDR) [µg/mL] | MIC (E. coli ATCC 25922 MCR-1) [µg/mL] | MIC (E. coli ATCC 25922; ATCC 25922, 16 h) [µg/mL] | MIC (E. coli EQAS MCR-2) [µg/mL] | MIC (K. pneumoniae 2048; 2048, 16 h) [µg/mL] | MIC (K. pneumoniae ATCC 11228; ATCC 11228, 16 h) [µg/mL] | MIC (K. pneumoniae ATCC 13883; ATCC 13883, 16 h) [µg/mL] | MIC (K. pneumoniae JS-123; JS-123, 16 h) [µg/mL] | MIC (P. aeruginosa ATCC 27853; ATCC 27853, 16 h) [µg/mL] | MIC (P. aeruginosa M-120; M-120, 16 h) [µg/mL] | MIC (P. aeruginosa NRZ-03961; NRZ-03961, 16 h) [µg/mL] | MIC (P. aeruginosa PAO1; PAO1, 16 h) [µg/mL] | MIC (S. aureus USA300; USA300, 16 h) [µg/mL] | MIC [1] [µg/mL] | also measured
CCC(C)CCC(=O)N[C@H](CC(N)=O)C(=O)N[C@H](Cc1ccc(O)cc1)C(=O)N[C@H](Cc1c[nH]c2ccccc12)C(=O)N[C@H](CCCN)C(=O)N[C@@H](CCCN)C(=O)NCC(=O)N[C@H](CCCN)C(=O)N[C@@H](Cc1c[nH]c2ccccc12)C(=O)N[C@@H]1C(=O)N[C@@H]([C@@H](C)CC)C(=O)NCC(=O)N[C@@H](CO)C(=O)O[C@@H]1C (stereo partly drawn) [Brev (1), brevicidine] | 4 (≈ 2.63 µM) | 2 to 4 | 4 (≈ 2.63 µM) | 4 (≈ 2.63 µM) | 2 (≈ 1.32 µM) | 1 to 2 | 2 (≈ 1.32 µM) | 1 to 2 | 1 to 2 | 1 (≈ 0.658 µM) | 1 (≈ 0.658 µM) | ≤0.5 | 2 to 4 | 2 (≈ 1.32 µM) | 2 (≈ 1.32 µM) | 64 (≈ 42.1 µM) |  | 
CCC(C)CCC(=O)N[C@H](CC(N)=O)C(=O)N[C@H](Cc1ccc(O)cc1)C(=O)N[C@H](Cc1c[nH]c2ccccc12)C(=O)N[C@H](CCCN)C(=O)N[C@@H](CCCN)C(=O)NCC(=O)N[C@H](CCCN)C(=O)N[C@@H](Cc1c[nH]c2ccccc12)C(=O)N[C@H]1CNC(=O)[C@H](CO)NC(=O)CNC(=O)[C@H]([C@@H](C)CC)NC1=O (stereo partly drawn) [Dap9-Brev (5), Dap9-Brevicidamide] ({Hexanoyl(4ξ-Me)}-[dN][dY][dW][dOrn][Orn]G[dOrn]W[Dap]IGS; lactam 9-C) |  |  |  | 8 (≈ 5.32 µM) | 16 (≈ 10.6 µM) |  | 8 to 16 |  |  |  |  |  |  |  |  |  | 8 to 16 | MIC (A. baumannii 2018-006; Ab 2018-006, broth microdilution (CLSI), MHB, 16 h 37 °C, three technical replicates): 8 µg/mL (≈ 5.32 µM); MIC (A. baumannii ATCC 17961; Ab ATCC 17961, broth microdilution (CLSI), MHB, 16 h 37 °C, three technical replicates): 4 µg/mL (≈ 2.66 µM); MIC (A. baumannii ATCC 17978; Ab ATCC 17978, broth microdilution (CLSI), MHB, 16 h 37 °C, three technical replicates): 16 µg/mL (≈ 10.6 µM); MIC (E. coli ATCC 25922; Ec ATCC 25922, broth microdilution (CLSI), MHB, 2 × 10^5 CFU/mL, 16 h 37 °C, visual read-out, three technical replicates): 8 to 16 µg/mL; MIC (K. pneumoniae 2048; Kp 2048, broth microdilution (CLSI), MHB, 16 h 37 °C, three technical replicates): 16 to 32 µg/mL; MIC (K. pneumoniae ATCC 11228; Kp ATCC 11228, broth microdilution (CLSI), MHB, 16 h 37 °C, three technical replicates): 16 to 32 µg/mL; MIC (K. pneumoniae ATCC 13883; Kp ATCC 13883, broth microdilution (CLSI), MHB, 16 h 37 °C, three technical replicates): 32 µg/mL (≈ 21.3 µM); MIC (K. pneumoniae JS-123; Kp JS-123, broth microdilution (CLSI), MHB, 16 h 37 °C, three technical replicates): 8 µg/mL (≈ 5.32 µM); MIC (P. aeruginosa ATCC 27853; Pa ATCC 27853, broth microdilution (CLSI), MHB, 16 h 37 °C, three technical replicates): 8 µg/mL (≈ 5.32 µM); MIC (P. aeruginosa M-120; Pa M-120, broth microdilution (CLSI), MHB, 16 h 37 °C, three technical replicates): 16 µg/mL (≈ 10.6 µM); MIC (P. aeruginosa NRZ-03961; Pa NRZ-03961, broth microdilution (CLSI), MHB, 16 h 37 °C, three technical replicates): 16 to 32 µg/mL; MIC (P. aeruginosa PAO1; Pa PAO1, broth microdilution (CLSI), MHB, 16 h 37 °C, three technical replicates): 16 to 32 µg/mL; MIC (S. aureus USA300; Sa USA300, broth microdilution (CLSI), MHB, 16 h 37 °C, three technical replicates): >64 µg/mL
CCC(C)CCC(=O)N[C@H](CC(N)=O)C(=O)N[C@H](Cc1ccc(O)cc1)C(=O)N[C@H](Cc1c[nH]c2ccccc12)C(=O)N[C@H](CCCN)C(=O)N[C@@H](CCCN)C(=O)NCC(=O)N[C@H](CCCN)C(=O)N[C@@H](Cc1c[nH]c2ccccc12)C(=O)N[C@@H]1C(=O)N[C@@H]([C@@H](C)CC)C(=O)NCC(=O)N[C@@H](CO)C(=O)N[C@@H]1C (stereo partly drawn) [MeDap9-Brev (7)] | 16 (≈ 10.5 µM) | 8 to 16 | 16 (≈ 10.5 µM) |  | 8 (≈ 5.27 µM) | 16 (≈ 10.5 µM) |  | 8 to 16 | 8 (≈ 5.27 µM) | 8 (≈ 5.27 µM) | 4 to 8 | 2 to 4 | 4 (≈ 2.63 µM) | 8 (≈ 5.27 µM) | 4 (≈ 2.63 µM) | >64 | 8 (≈ 5.27 µM) | 
